Test results as given in PMC3523389 (The Journal of pharmacology and experimental therapeutics, 2012).

Biological target: T1, microsomal prostaglandin E2 synthase-1 (mPGES-1) (Homo sapiens, UniProt O14684)
T1 sequence (O14684 1-152): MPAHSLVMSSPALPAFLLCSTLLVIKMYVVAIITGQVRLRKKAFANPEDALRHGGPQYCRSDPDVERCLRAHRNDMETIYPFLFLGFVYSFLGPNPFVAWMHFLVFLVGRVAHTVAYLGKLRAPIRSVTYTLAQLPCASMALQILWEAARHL
Assay: cell-free mPGES-1 activity assay in A549 microsomes, […] inhibition at […]
Format: cell-based
Conditions: A549, read-out: % inhibition at 10 μM

inhibition at 10 µM: 74.5 ± 1.5%
Structure (SMILES): CC(C)c1ccc2c(c1)c(SC(C)(C)C)c(CC(C)(C)C(=O)O)n2Cc1ccc(Cl)cc1 [MK-886, 3-[1-(4-chlorobenzyl)-3-t-butylthio-5-isopropylindol-2-yl]-2,2-dimethylpropanoic acid]
